Reference: ChEMBL document CHEMBL5252568, “Rational design of HJH antimicrobial peptides to improve antimicrobial activity” (Bioorg Med Chem Lett, 2023)

Tests used:
[1] = tested on: Escherichia coli; assay: Antimicrobial activity against Escherichia coli ATCC 25922 assessed as reduction in microbial growth; type: functional
[2] = tested on: Staphylococcus aureus; assay: Antimicrobial activity against Staphylococcus aureus ATCC 29213 assessed as reduction in microbial growth; type: functional
[3] = tested on: Candida albicans; assay: Antimicrobial activity against Candida albicans ATCC 90029 assessed as reduction in microbial growth; type: functional
[4] = tested on: HEK293; assay: Cytotoxicity against human HEK293 cells assessed as reduction in cell viability at 128 uM relative to control; type: toxicity, cell-based; conditions: hek293, 128 µM
[5] = Stability in human serum assessed as compound remaining measured after 3 hr by RP-HPLC analysis; type: ADME, cell-free; conditions: read-out: Stability
[6] = tested on: HEK293; assay: Cytotoxicity against human HEK293 cells assessed as reduction in cell viability at 1 to 128 uM relative to control; type: toxicity, cell-based; conditions: hek293, 128 µM, dose 1-128 µM
[7] = Stability in human serum assessed as compound remaining measured after 1 hr by RP-HPLC analysis; type: ADME, cell-free; conditions: read-out: Stability
[8] = Hemolytic activity in human RBC assessed as hemolysis at 2 uM relative to control; type: toxicity, cell-based, Erythrocyte; conditions: red blood cells, read-out: Activity
[9] = Hemolytic activity in human RBC assessed as hemolysis at 128 uM relative to control; type: toxicity, cell-based, Erythrocyte; conditions: red blood cells, read-out: Activity
[10] = Hemolytic activity against human RBC assessed as concentration required to cause 10% hemolysis up to 256 uM relative to control; type: toxicity, cell-based; conditions: erythrocyte
[11] = tested on: HEK293; assay: Cytotoxicity against human HEK293 cells assessed as reduction in cell viability up to 256 uM; type: toxicity, cell-based; conditions: hek293, 256 µM

Molecule	MIC [1]	MIC [2]	MIC [3]	Activity [4]	remaining at 3 h [5]	Activity [6]	remaining at 1 h [7]	hemolysis at 2 µM [8]	hemolysis at 128 µM [9]	Activity [10]	Activity [11]
C[C@@H]1[C@H](O)[C@@H](C)/C=C/C=C/C=C/C=C/C=C/C=C/C=C/[C@H](O[C@@H]2O[C@H](C)[C@@H](O)[C@H](N)[C@@H]2O)C[C@@H]2O[C@](O)(C[C@@H](O)C[C@@H](O)[C@H](O)CC[C@@H](O)C[C@@H](O)CC(=O)O[C@H]1C)C[C@H](O)[C@H]2C(=O)O [AMPHOTERICIN B]	0.4 µg/mL	0.4 µg/mL	–	–	–	–	–	–	–	–	–
OC(Cn1cncn1)(Cn1cncn1)c1ccc(F)cc1F [FLUCONAZOLE]	–	–	12.5 µg/mL	–	–	–	–	–	–	–	–
H-KKLLKKLLRLLKVLLR-OH	25 µg/mL	0.75 µg/mL	3 µg/mL	11%	< 9%	Toxic	60%	90%	–	–	–
H-KKLLRLLKVLLR-OH	1.5 µg/mL	1.5 µg/mL	50 µg/mL	50%	< 9%	Toxic	60%	–	35%	–	–
H-KLLKHKLLVTLA-OH	50 µg/mL	50 µg/mL	> 200 µg/mL	–	< 9%	–	–	–	–	Non-Toxic	Non-Toxic
H-KLLKHKLLVTLR-OH	50 µg/mL	12.5 µg/mL	> 200 µg/mL	–	–	–	–	–	–	Non-Toxic	Non-Toxic
H-KLLKRKLLVLLR-OH	12.5 µg/mL	3 µg/mL	> 200 µg/mL	–	–	–	–	–	–	–	–
H-KLLKRKLLVTLR-OH	25 µg/mL	6.25 µg/mL	> 200 µg/mL	–	–	–	–	–	–	Non-Toxic	Non-Toxic
